# Test results published in ChEMBL document CHEMBL1123631, “Synthesis and gastrointestinal pharmacology of the 4-fluoro analogue of enisoprost” (1987).
# Assays:
# Assay type in all cases: functional
# Rattus norvegicus = species: Rattus norvegicus; assay: Mucosal protective activity in rats was measured as minimum effective dose (MED); ig; settings: po, read-out: MED
# Canis familiaris [1] = assay: Gastric antisecretory activity was determined in food stimulated Pavlov dogs by intrapouch administration ig; Value ranges from 6.2-15.3; settings: Canis lupus familiaris
# Canis familiaris [2] = assay: Gastric antisecretory activity was determined in food stimulated Pavlov dogs by intrapouch administration ig; Value ranges from 0.017-0.032; settings: Canis lupus familiaris
SMILES,minimal effective dose (Rattus norvegicus) [µg/kg],ED50 (Canis familiaris [1]) [µg/kg],ED50 (Canis familiaris [2]) [µg/kg]
CCCCC(C)(O)C/C=C/[C@H]1[C@H](O)CC(=O)[C@@H]1CC/C=C(/F)CCC(=O)OC (some centres undefined),50,9.7,–
CCCCC(C)(O)C/C=C/[C@H]1[C@H](O)CC(=O)[C@@H]1CC/C=C\CCC(=O)OC (some centres undefined) [ENISOPROST],1,–,0.023
